From patent publication US4141899A, “4,5,6,7-Tetrahydroimidazo-[4,5-c]-pyridine derivatives” (Societa' Farmaceutici Italia S.p.A., priority 1976, dated 1979) come the findings set out here.

Each structure is given as a SMILES string. Like-named read-outs stand apart in the source and are kept apart here.

Common to all, as to type: in vivo, Sprague-Dawley male rats
For one experiment, the system named is restraint ulcer. Put plainly: Inhibition of restraint ulcer in rats. The conditions noted are these: Rattus norvegicus. As for the experimental part:
1. […] Six Sprague-Dawley male rats (100-200 g) fasted for 24 hours were used for each group.
A square flexible small-mesh wire netting was used for immobilization. After 4 hours immobilization the rats were sacrificed, their stomachs were removed, and lesions counted under a dissecting microscope.
The compounds were administered subcutaneously (s.c.) immediately before the immobilization or orally (os) one hour before.

For the next experiment, the system named is gastric secretion. Put plainly: Inhibition of gastric secretion in rats (pylorus ligature technique). Conditions: Rattus norvegicus, sc, s.c. at the time of pylorus ligature, 4 h, read-out: Antisecretory ED50 s.c. How it is done: 2. […] Gastric antisecretory activity was evaluated in rats by the pylorus ligature technique.
Six Sprague-Dawley male rats (110-130 g) were used for each group. Twenty-four hours before the test, the rats were deprived of food but their water supply was maintained.
On the day of the operation, the pylorus was ligated under light ether anaesthesia. Four hours after the ligature, the rats were sacrificed, the stomach secretion was collected and centrifuged at 3500 r.p.m. for 10 minutes, and the volume, less sediment, was determined. The amount of the free hydrochloric acid in the gastric juice was determined by titration against 0.01N sodium hydroxide, using Topfer's Indicator.
Each compound was injected subcutaneously at the time of ligature.

Experiment [1] relates to chromodacryorhea induced by carbacholine. Put plainly: Anticholinergic activity in rats (antagonism against chromodacryorhea induced by carbacholine). The conditions noted are these: for ED50: Rattus norvegicus, po, read-out: anticholinergic ED50 p.o. (B); for B/A (ratio of ED50's for oral anti-cholinergic and anti-ulcer activities): B = anticholinergic ED50, A = antiulcer ED50. From the text: 3. Anticholinergic activity in rats. […] J. Pharm. […] From 3 to 5 Sprague-Dawley male rats, 250 g body weight, have been employed for each group. […] The compound reference numbers are explained in the Examples below.

Setting [2] is: po, p.o. one hour before 4 h immobilization, read-out: Antiulcer ED50 p.o (A).
[3] abbreviates: sc, s.c. immediately before 4 h immobilization, read-out: Antiulcer ED50 s.c.
Where [4] appears, read: rats, p.o., carbacholine-induced chromodacryorhea.

In general, ED50 refers to the dose at which the effect has come halfway, by size or by number of responders. As to `CC(C)NC(=S)N1CCc2[nH]cnc2C1C1CCCCC1` (stereo not shown) [compound 1367, 4-Cyclohexyl-5-(N-isopropyl-thiocarbamoyl)-4,5,6,7-tetrahydro-imidazo-[4,5-c]-pyridine], the ED50 with restraint ulcer (setting [2]) is 6 mg/kg; in the experiment with restraint ulcer (setting [3]), 3.3 mg/kg; in the experiment on gastric secretion, over 50 mg/kg; in experiment [1] (setting [4]), over 100 mg/kg. Also, in experiment [1] (rats, p.o.), the “B/A (ratio of ED50's for oral anti-cholinergic and anti-ulcer activities)” value was over 18.

Regarding `CCC1c2c(ncn2CC)CCN1C(=S)NC(C)C` (stereo not shown) [compound 1399, 3,4-Diethyl-5-(N-isopropyl-thiocarbamoyl)-4,5,6,7-tetrahydroimidazo-[4,5-c]-pyridine], the ED50 with restraint ulcer (setting [2]) is 4 mg/kg; in the experiment with restraint ulcer (setting [3]), 3.5 mg/kg; in experiment [1] (setting [4]), over 100 mg/kg. Besides, the “B/A (ratio of ED50's for oral anti-cholinergic and anti-ulcer activities)” value in experiment [1] (rats, p.o.) is on record as over 25.

With `N=C(NC(=O)c1ccccc1)N1CCc2[nH]cnc2C1` [compound 1450, 5-(N-benzoylguanyl)-4,5,6,7-tetrahydroimidazo-[4,5-c]-pyridine], the ED50 in the experiment with restraint ulcer (setting [2]) is 34 mg/kg; in the experiment with restraint ulcer (setting [3]) it was over 10 mg/kg; with gastric secretion, over 50 mg/kg.

As to `CNC(=O)N1CCc2[nH]cnc2C1` [compound 1350, 5-(N-methyl-carbamoyl)-4,5,6,7-tetrahydro-imidazo-[4,5-c]-pyridine], the ED50 in the experiment on restraint ulcer (setting [2]) is 5.6 mg/kg; in the experiment on restraint ulcer (setting [3]), 6.5 mg/kg; in the experiment with gastric secretion, over 50 mg/kg; in experiment [1] (setting [4]), over 100 mg/kg. Moreover, the “B/A (ratio of ED50's for oral anti-cholinergic and anti-ulcer activities)” value in experiment [1] (rats, p.o.) is listed as over 18.

Take `O=C(NC1CCCC1)N1CCc2[nH]cnc2C1` [compound 1366, 5-(N-cyclopentyl-carbamoyl)-4,5,6,7-tetrahydro-imidazo-[4,5-c]-pyridine]: the ED50 turned out to be 3.8 mg/kg with restraint ulcer (setting [2]), 0.75 mg/kg with restraint ulcer (setting [3]), 17 mg/kg with gastric secretion and 10 mg/kg in experiment [1] (setting [4]). Besides, the “B/A (ratio of ED50's for oral anti-cholinergic and anti-ulcer activities)” value in experiment [1] (rats, p.o.) was found to be 2.6.

`CCC1c2nc[nH]c2CCN1C(=O)NC(C)C` (stereo not shown) [compound 1316, 4-Ethyl-5-(N-isopropyl-carbamoyl)-4,5,6,7-tetrahydro-imidazo-[4,5-c]-pyridine]: the ED50 with restraint ulcer (setting [2]) was 6.6 mg/kg; in the experiment on restraint ulcer (setting [3]), 0.75 mg/kg; in the experiment on gastric secretion, 50 mg/kg; in experiment [1] (setting [4]) it was 70 mg/kg. The “B/A (ratio of ED50's for oral anti-cholinergic and anti-ulcer activities)” value in experiment [1] (rats, p.o.) stood at 10.

As to `CNC(=S)N1CCc2[nH]cnc2C1` [compound 1068, 5-(N-methyl-thiocarbamoyl)-4,5,6,7-tetrahydroimidazo-[4,5-c]-pyridine], the ED50 with restraint ulcer (setting [2]) was 2.4 mg/kg; in the experiment on restraint ulcer (setting [3]) it was 0.6 mg/kg; in the experiment on gastric secretion it was over 50 mg/kg; in experiment [1] (setting [4]), over 100 mg/kg. Besides, in experiment [1] (rats, p.o.), the “B/A (ratio of ED50's for oral anti-cholinergic and anti-ulcer activities)” value is reported as over 40.

Take `CC(C)NC(=S)N1CCc2[nH]cnc2C1` [compound 1087, 5-(N-isopropyl-thiocarbamoyl)-4,5,6,7-tetrahydro-imidazo-[4,5-c]-pyridine]: the ED50 is 3.1 mg/kg in the experiment on restraint ulcer (setting [2]), 0.9 mg/kg with restraint ulcer (setting [3]), 6 mg/kg in the experiment on gastric secretion and 2 mg/kg in experiment [1] (setting [4]). Also, in experiment [1] (rats, p.o.), the “B/A (ratio of ED50's for oral anti-cholinergic and anti-ulcer activities)” value is given as 0.6.

For `CN1[C@@H]2CC[C@H]1C[C@@H](OC(=O)C(CO)c1ccccc1)C2` (stereo partly shown) [Atropine, reference compound], the ED50 in the experiment with restraint ulcer (setting [2]) worked out at 0.4 mg/kg; with restraint ulcer (setting [3]), 0.02 mg/kg; with gastric secretion, 0.1 mg/kg; in experiment [1] it was 0.8 mg/kg. For the same compound, the “B/A (ratio of ED50's for oral anti-cholinergic and anti-ulcer activities)” value is 2 in experiment [1] (rats, p.o.) and “about 2” in experiment [1] (rats, p.o., listed as atropine).

For `CCNC(=S)N1CCc2[nH]cnc2C1` [compound 1293, 5-(N-ethyl-thiocarbamoyl)-4,5,6,7-tetrahydro-imidazo-[4,5-c]-pyridine], the figures for the ED50 in the experiment on restraint ulcer (setting [2]), with restraint ulcer (setting [3]) and in the experiment on gastric secretion were 25 mg/kg, 6 mg/kg and 8 mg/kg, respectively.

Turning to `S=C(NC1CC1)N1CCc2[nH]cnc2C1` [compound 1359, 5-(N-cyclopropyl-thiocarbamoyl)-4,5,6,7-tetrahydro-imidazo-[4,5-c]-pyridine], the ED50 with restraint ulcer (setting [2]) stood at 1.8 mg/kg; with restraint ulcer (setting [3]) it was 5 mg/kg; in the experiment on gastric secretion, 40 mg/kg; in experiment [1] (setting [4]), 45.5 mg/kg. The “B/A (ratio of ED50's for oral anti-cholinergic and anti-ulcer activities)” value in experiment [1] (rats, p.o.) is reported as 25.

Regarding `CCC1c2nc[nH]c2CCN1C(=N)NC(=O)c1ccccc1` (stereo not shown) [compound 1448, 4-Ethyl-5-(N-benzoylguanyl)-4,5,6,7-tetrahydroimidazo-[4,5-c]-pyridine], the ED50 was 22 mg/kg in the experiment on restraint ulcer (setting [2]), over 10 mg/kg in the experiment with restraint ulcer (setting [3]), over 50 mg/kg with gastric secretion and over 100 mg/kg in experiment [1] (setting [4]). In experiment [1] (rats, p.o.), the “B/A (ratio of ED50's for oral anti-cholinergic and anti-ulcer activities)” value was over 4.

With `CCC1c2c(ncn2C)CCN1C(=O)NC(C)C` (stereo not shown) [compound 1404, 3-Methyl-4-ethyl-5-(N-isopropyl-carbamoyl)-4,5,6,7-tetrahydroimidazo-[4,5-c]-pyridine], the ED50 in the experiment on restraint ulcer (setting [2]) was 34 mg/kg; in the experiment on restraint ulcer (setting [3]), 10 mg/kg; in the experiment with gastric secretion, over 50 mg/kg.

As to `O=C(NC1CC1)N1CCc2[nH]cnc2C1` [compound 1365, 5-(N-cyclopropyl-carbamoyl)-4,5,6,7-tetrahydro-imidazo-[4,5-c]-pyridine], the ED50 in the experiment on restraint ulcer (setting [2]) came to 3.8 mg/kg; with restraint ulcer (setting [3]), 2 mg/kg; with gastric secretion it was 50 mg/kg; in experiment [1] (setting [4]), 21 mg/kg. In experiment [1] (rats, p.o.), the “B/A (ratio of ED50's for oral anti-cholinergic and anti-ulcer activities)” value is on record as 5.5.

For the compound `CNC(=S)NCCSCc1nc[nH]c1C` [Methiamide, reference compound], the ED50 with restraint ulcer (setting [2]) was 64 mg/kg; with restraint ulcer (setting [3]), 14 mg/kg; in the experiment on gastric secretion, 60 mg/kg; in experiment [1] (setting [4]), 85 mg/kg. Further, the “B/A (ratio of ED50's for oral anti-cholinergic and anti-ulcer activities)” value was 1.3 in experiment [1] (rats, p.o.) and “about 2” in experiment [1] (rats, p.o., listed as methiamide).

With `CC(C)NC(=O)N1CCc2[nH]cnc2C1` [compound 1348, 5-(N-isopropyl-carbamoyl)-4,5,6,7-tetrahydro-imidazo-[4,5-c]-pyridine], the ED50 in the experiment on restraint ulcer (setting [2]) was found to be 0.55 mg/kg; in the experiment with restraint ulcer (setting [3]), 0.1 mg/kg; with gastric secretion, 18 mg/kg; in experiment [1] (setting [4]), 7.8 mg/kg. The “B/A (ratio of ED50's for oral anti-cholinergic and anti-ulcer activities)” value in experiment [1] (rats, p.o.) was found to be 14.

For `S=C(NC1CCCC1)N1CCc2[nH]cnc2C1` [compound 1360, 5-(N-cyclopentyl-thiocarbamoyl)-b 4,5,6,7-tetrahydro-imidazo-[4,5-c]-pyridine], the ED50 in the experiment with restraint ulcer (setting [2]) was 5.6 mg/kg; in the experiment on restraint ulcer (setting [3]), over 10 mg/kg; in the experiment with gastric secretion, 19 mg/kg; in experiment [1] (setting [4]) it was 76 mg/kg. The “B/A (ratio of ED50's for oral anti-cholinergic and anti-ulcer activities)” value in experiment [1] (rats, p.o.) worked out at 13.

In the case of `S=C(Nc1ccccc1)N1CCc2[nH]cnc2C1` [compound 1116, 5-(N-Phenyl-thiocarbamoyl)-4,5,6,7-tetrahydro-imidazo-[4,5-c]-pyridine], the ED50 in the experiment on restraint ulcer (setting [2]) is over 34 mg/kg; in the experiment with restraint ulcer (setting [3]), over 10 mg/kg; in the experiment on gastric secretion, 23 mg/kg.

On to `CCC1c2c(ncn2CC)CCN1C(=O)NC(C)C` (stereo not shown) [compound 1400, 3,4-Diethyl-5-(N-isopropyl-carbamoyl)-4,5,6,7-tetrahydro-imidazo-[4,5-c]-pyridine], for which the ED50 with restraint ulcer (setting [2]) was 18 mg/kg; with restraint ulcer (setting [3]), 10 mg/kg; with gastric secretion, 50 mg/kg; in experiment [1] (setting [4]), over 100 mg/kg. Also, in experiment [1] (rats, p.o.), the “B/A (ratio of ED50's for oral anti-cholinergic and anti-ulcer activities)” value was over 5.5.

For `CCCNC(=S)N1CCc2[nH]cnc2C1` [compound 1361, 5-(N-n-propyl-thiocarbamoyl)-4,5,6,7-tetrahydro-imidazo-[4,5-c]-pyridine], the ED50 is 25 mg/kg in the experiment with restraint ulcer (setting [2]), 10 mg/kg in the experiment on restraint ulcer (setting [3]) and 50 mg/kg with gastric secretion.

`CCC1c2nc[nH]c2CCN1C(=S)NC(C)C` (stereo not shown) [compound 1184, 4-Ethyl-5-(N-isopropyl-thiocarbamoyl)-4,5,6,7-tetrahydro-imidazo-[4,5-c]-pyridine]: the ED50 in the experiment on restraint ulcer (setting [2]) came out at 11 mg/kg; with restraint ulcer (setting [3]), 0.64 mg/kg; in the experiment with gastric secretion it was 22 mg/kg; in experiment [1] (setting [4]), 10 mg/kg.

Turning to `CC(C)NC(=O)N1CCc2[nH]cnc2C1c1ccncc1` (stereo not shown) [compound 1467, 4-(4-pyridyl)-5-(N-isopropyl-carbamoyl)-4,5,6,7-tetrahydroimidazo-[4,5-c]-pyridine], the ED50 is 50 mg/kg with restraint ulcer (setting [2]), 7 mg/kg in the experiment with restraint ulcer (setting [3]) and over 50 mg/kg in the experiment with gastric secretion.

`CC(C)NC(=S)N1CCc2ncn(C)c2C1` [compound 1286]: the ED50 in the experiment with restraint ulcer (setting [2]) is 8.5 mg/kg; with restraint ulcer (setting [3]), 0.85 mg/kg; with gastric secretion, 34 mg/kg; in experiment [1] (setting [4]), over 50 mg/kg. In experiment [1] (rats, p.o.), the “B/A (ratio of ED50's for oral anti-cholinergic and anti-ulcer activities)” value is over 5.8.
